From patent US20210347709A1, “RADIOFLUORINATED GPC3-BINDING PEPTIDES FOR PET IMAGING OF HEPATOCELLULAR CARCINOMA” (University of Southern California, priority 2020, published 2021)

Legend:
[1] = In vitro biocompatibility (cell counting Kit-8 cell viability); type: cell-based; settings: human, HepG2 cells, all concentrations 120 to 840 μg/ml
Method: In Vitro Biocompatibility. A colorimetric assay was utilized to determine cell viability after treating GPC3 positive HepG2 cells with the GP2076 or GP2633 peptide. The assay was carried out according to the instruction of the manufacturer. In brief, HepG2 cells were seeded at a density of 1×10^4 cells/well in a 96-well plate. After the incubation of the GP2076 or GP2633 peptide at various concentrations (0, 120, 240, 360, 480, 600, 720, and 840 μg/ml) with HepG2 cells for 24 h, the HepG2 cells were examined using the cell counting Kit-8 (KeyGen Biotech, Nanjing, China). The absorbance at 450 nm of all the wells in the 96-well microplate was recorded on a microplate reader (BIOTEK ELX800, USA). The experiment was performed in quadruplicate.

[2] = target: T1, GPC3 (Homo sapiens, UniProt P51654); experiment: Binding assay by surface plasmon resonance (SPR); settings: GPC3 protein immobilized on 3D Dextran chip
T1 construct: purchased Novoprotein, China
Method: Binding Assay. The binding affinity of the GP2076 or GP2633 peptide for GPC3 was determined using surface plasmon resonance (SPR) measurements (PlexArray HT A100, Plexera, USA). In brief, after the GPC3 protein (Novoprotein, China) was immobilized on a 3D Dextran chip, the GP2076 or GP2633 peptide flowed at increasing concentrations (400 nM and 800 nM). The results were analyzed by PlexeraDE software.

T1 sequence (P51654 25-554): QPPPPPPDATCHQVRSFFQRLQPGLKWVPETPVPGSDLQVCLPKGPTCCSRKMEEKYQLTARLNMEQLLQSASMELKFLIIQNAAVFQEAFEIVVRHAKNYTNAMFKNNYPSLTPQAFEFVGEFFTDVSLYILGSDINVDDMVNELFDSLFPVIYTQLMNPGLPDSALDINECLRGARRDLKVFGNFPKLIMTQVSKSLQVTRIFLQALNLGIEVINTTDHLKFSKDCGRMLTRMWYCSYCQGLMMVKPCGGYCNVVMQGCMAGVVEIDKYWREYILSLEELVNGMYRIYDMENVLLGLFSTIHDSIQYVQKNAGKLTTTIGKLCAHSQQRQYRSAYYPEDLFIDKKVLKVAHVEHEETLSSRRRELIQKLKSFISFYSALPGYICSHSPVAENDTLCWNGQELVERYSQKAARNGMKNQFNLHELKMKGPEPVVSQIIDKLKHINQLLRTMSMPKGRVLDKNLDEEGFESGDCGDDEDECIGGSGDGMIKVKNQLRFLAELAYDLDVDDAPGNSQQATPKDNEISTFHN

| Kd [2] [nM] | Compound | viability at 24 h [1] [%] |
| --- | --- | --- |
| 101 | CC(C)C[C@H](NC(=O)[C@H](CCCNC(=N)N)NC(=S)Nc1ccc(CC2CN(CC(=O)O)CCN(CC(=O)O)CCN2CC(=O)O)cc1)C(=O)N[C@@H](CC(N)=O)C(=O)N[C@H](C(=O)NCC(=O)NCC(=O)N[C@H](C(=O)N[C@@H](Cc1ccc(O)cc1)C(=O)N[C@@H](Cc1ccccc1)C(=O)N[C@@H](CC(C)C)C(=O)N[C@H](C(=O)N[C@H](C(=O)N[C@@H](CCCNC(=N)N)C(=O)N[C@@H](CCC(N)=O)C(=O)O)[C@@H](C)O)[C@@H](C)O)[C@@H](C)O)C(C)C (stereo partly shown) [GP2076] | > 90 |
| 63.3 | CC(C)C[C@H](NC(=O)[C@H](CCCNC(=N)N)NC(=O)[C@H](CC(N)=O)NC(=O)[C@H](CC(=O)O)NC(=O)[C@H](CCCNC(=N)N)NC(=O)CNC(=O)CNC(=O)CNC(=S)Nc1ccc(CC2CN(CC(=O)O)CCN(CC(=O)O)CCN2CC(=O)O)cc1)C(=O)N[C@@H](CC(N)=O)C(=O)N[C@H](C(=O)NCC(=O)NCC(=O)N[C@H](C(=O)N[C@@H](Cc1ccc(O)cc1)C(=O)N[C@@H](Cc1ccccc1)C(=O)N[C@@H](CC(C)C)C(=O)N[C@H](C(=O)N[C@H](C(=O)N[C@@H](CCCNC(=N)N)C(=O)N[C@@H](CCC(N)=O)C(=O)O)[C@@H](C)O)[C@@H](C)O)[C@@H](C)O)C(C)C (stereo partly shown) [GP2633] | > 90 |
